Laboratory results as given in patent US11532406B2, “High specific activity preparation of F-18 tetrafluoroborate” (Mayo Foundation for Medical Education and Research, priority 2016, dated 2022).
“Also recorded” adds a separate entry of the source.

Test: Safety measurements for ^18F-TFB administration (vital signs, clinical laboratory tests)
Type: in vivo, human
Protocol: Vital signs (heart rate, systolic and diastolic blood pressures, respiratory rate, and temperature) were measured prior to ^18F-TFB administration and at 45 and 240 min post-injection. Venous blood samples were taken prior to ^18F-TFB administration and at ˜240 min post-injection for a panel of clinical laboratory tests to evaluate the safety of the radiotracer administration.

## F[B-](F)(F)[18F] [^18F-TFB, ^18F-tetrafluoroborate]
Blood chemistries, electrolytes, liver and kidney functional tests, relative to baseline
  clinical laboratory test values after administration: No significant changes; also recorded: no significant findings
Eight healthy participants
  adverse effects: no adverse effects
Healthy participants, 333-407 MBq intravenous
  tolerability of administration: well-tolerated; also recorded: well tolerated
Heart rate, blood pressures, respiratory rate, before vs after administration
  vital signs after administration: No significant changes; also recorded: no significant findings
